In one series the test system is CACO-2 cells. The series is described as follows: CACO-2 cell apparent permeability (Papp), BBB model. Conditions: CACO-2 monolayers in Transwells, 30 minutes at 37° C., donor to acceptor. How it is done:
Culturing of CACO-2 cells and Determination of Apparent Permeability (Papp) Values:
The seeding of 12 mm Transwells was as follows for CACO-2. Flasks of confluent cultures were trypsinsed and cells were carefully resuspended, making sure there are no clumps or air bubbles. 1.5 ml of tissue culture medium was placed in the bottom (acceptor) chamber of the wells and 0.5 ml containing 2×10^5 cells in the Transwell (donor chamber) and placed in the incubator. The cells were routinely monitored for adequate trans epithelial electrical resistance (TEER) using an EndOhm Tissue resistance measurement chamber (WPI). The subsequent maintenance and feeding of the cells on the Transwells was as follows: when feeding the wells, the medium was removed from the acceptor chamber (basolateral side) and donor chamber (apical side) of the Transwells. The medium was aspirated off with a pipette connected to a vacuum pump, being careful not to touch the filter. 0.5 ml of growth medium was then placed into the donor chamber and 1.5 ml of growth medium was placed into the acceptor chamber.
When the TEER values of the CACO-2 cell monolayers in Transwells was around 500 Ωcm^2 (300-800 Ωcm^2 was considered acceptable) permeability experiments were performed in triplicate as follows. All culture media was removed and acceptor and donor chambers were rinsed twice with Eagles Balance Salt Solution (EBSS) (Gibco) at 37° C. 1.5 ml EBSS was added to the acceptor chamber and 0.5 ml EBSS containing radiolabelled compound was added to the donor chamber. Cultures in Transwells were then incubated for 30 minutes at 37° C. at 200 rpm using a Labnet Vortemp. After 30 minutes, 100 μl aliquot was taken from the donor chamber and 750 μl from the acceptor chamber. These aliquots were then counted for radioactivity. The remaining EBSS was removed from the acceptor and donor chambers and then the Transwell was thoroughly rinsed three times la with EBSS. Next, the Transwell membrane (and associated cells) was removed using a scalpel and the amount of radiolabel associated with it was determined.
Permeability of compounds were determined by calculating their Papp value: Papp=ΔQ/Δt.60.A.Co (cm/sec)
(Passage across Caco-2 layers is used to estimate intestinal permeability.)

Series [1] is described as follows: Brain Uptake Index (BUI) method. The series is classed as in vivo. Conditions: carotid artery bolus, decapitated after 15 seconds, relative to 14C-Butanol. How it is done: BUI is calculated according to the following equation: [formula] BUI was performed on three animals from the same test solution for each experiment. Each compound was assayed in duplicate.

Series [2] concerns the target T1, fibrillar Beta-Amyloid Protein (BAP 1-40) (Homo sapiens, UniProt P05067).
T1 construct: 25 μl BAP 1-40 (10 mg/ml, Biosource 03-138); purchased Biosource 03-138 (BAP 1-40); 03-243 (biotinylated BAP 1-40)
The series is described as follows: Amyloid binding on SPA beads. Conditions: 180 minutes at room temperature, equimolar amounts, non-specific binding subtracted. How it is done: The binding of Compound 1 (74 TBq/mmol) was determined compared to the ability of ^125I-beta amyloid protein 1-40 (^125I-BAP 1-40, Amersham Biosciences IM294)) to bind to amyloid 140 fibrils. Amyloid binding was essentially performed as follows.
Three fresh buffer stocks were prepared for experiments: Buffer 1, 50 mM HEPES/0.1 % Bovine Serum Albumin (BSA) pH 7.5; Buffer 2, 50 mM HEPES/0.1% BSA/400 μM ZnCl2 pH 7.5; Buffer 3, 50 mM HEPES/0.1% BSA/100 μM ZnCl2 pH 7.5.
Streptavidin coated scintillation proximity assay beads (SA-SPA beads, Amersham Biosciences) were used to immobilise fibrillar Beta-Amyloid Protein (BAP 1-40). Amyloid coated beads (SPA-BAP) were prepared by incubating 250 μl SA-SPA beads (100 mg/ml) with 250 μl Buffer 2, 425 μl Buffer 1, 50 μl biotinylated BAP 1-40 (0.5 mg/ml, Biosource 03-243), 25 μl BAP 1-40 (10 mg/ml, Biosource 03-138). Non-specific binding SPA beads (SPA-NSB) were prepared to assess the binding of compounds to SPA beads with no associated BAP 1-40 fibrils in the following incubation: 250 μl SA-SPA beads (100 mg/ml) with 250 μL Buffer 2,500 μl Buffer 1.
SPA-BAP and SPA-NSB incubations were left for 24 hours at room temperature and then spun 1.5 ml tubes (eppendorf, Merk, 306/0421/12) for 2 minutes at 1000×g. The supernatants were removed and the beads were washed twice by resuspending them in 1 ml Buffer 3 followed by centrifugation for 2 minutes at 1000×g. Finally, washed SPA-BAP and SPA-NSB beads were resuspended in 1 ml Buffer 3.
Amyloid binding of ^125I-BAP 1-40 and Compound 1 was performed in triplicate in 0.5 ml tubes (eppendorf, Merk, 306/0421/02) by adding 50 μl SPA-BAP beads to 25 μl Buffer 2 and 25 μl labelled compound (^125I-BAP 1-40 or Compound 1). Tubes were then incubated for 180 minutes at room temperature with shaking, followed by centrifugation for 2 minutes at 1000×g. The supernatants were removed and SPA-BAP pellet washed twice with 300 μl Buffer 3 containing 1% TWEEN-20 (Sigma, P7949). Non-specific binding for labelled compounds to the SPA beads was determined using incubations as described above but by substituting SPA-BAP beads with SPA-NSB beads. Radioactivity associated with the washed SPA bead pellets was then determined.
The affinity of labelled compounds for fibrillar BAP 1-40 was estimated by subtracting SPA-NSB associated counts from SPA-BAP associated counts. The binding of labelled compounds was then compared to ^125I-BAP binding, which was taken as being 100%.
In these experiments, ^125-BAP 1-40 or Compound 1 were added in equimolar amounts (between 1-5×10^−11 mmoles per incubation).

These results are taken from patent publication US20050123477A1, “Benzothiazole derivatives for in vivo imaging of amloid plaques” (priority 2002, published 2005).

Where no end group is shown, it is not given here.

T1 sequence (P05067 672-711 limits assumed): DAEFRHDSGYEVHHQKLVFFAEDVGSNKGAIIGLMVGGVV

As to `O=C[C@H](O)[C@@H](O)[C@H](O)[C@H](O)CO` [^14C-Glucose, ^14C-glucose], the Papp with CACO-2 cells was found to be 57.9 ×10⁻⁶ cm/s.

Turning to `CN1C(=O)CN=C(c2ccccc2)c2cc(Cl)ccc21` [^14C-diazapam, ^14C-diazepam], in the series with CACO-2 cells, the Papp was determined as 24.4 ×10⁻⁶ cm/s. As for `OCC(O)C(O)C(O)C(O)[14CH2]O` (stereo not shown) [^14C-mannitol], the apparent permeability coefficient (Papp) in the series on CACO-2 cells came out at 3.63 ×10⁻⁶ cm/s. Take ^14C-FDG [reference compound]: the “Mean BUI” value in series [1] came to 17.98. Turning to “^99mTc-Pn216-KKLVFF (BAP 15-20): ^99mTc-labelled BAP sequence responsible for the binding of BAP to itself”, the “Amyloid binding (% of 125I-BAP 1-40)” value in series [2] was determined as 9%. “^125I-BAP 1-40: ^125I-beta amyloid protein 1-40, Amersham Biosciences IM294; reference taken as 100% binding”: in series [2], the “Amyloid binding (% of 125I-BAP 1-40)” value is on record as 100%. On to “^125I-KKLVFFA (BAP 15-21): ^125I-labelled BAP 15-21 sequence (Amersham Biosciences) (not fully specified (N-terminus); also: 125I label, site not given here)”, for which the “Amyloid binding (% of 125I-BAP 1-40)” value in series [2] was 21%.

What is called Papp is the rate of passage across a membrane or cell layer, normalised by area and donor concentration.
